Tests used:
[1] = system: HCV-RNA replication in ORL8 cells; assay: Effect of VE on anti-HCV activity, ORL8 RL assay; format: cell-based, hepatitis C virus; conditions: 72 hrs
Procedure: After treatment, an RL assay of harvested ORL8 cell samples was performed. (B, D, and F) The ratio of RL activity in the presence of VE to the RL activity in the absence of VE. The above ratio was calculated from the data of (A, C, and E). […] (G) Western blot analysis was performed as described in Fig. 1B.
(§1) The ORL8 cells were treated with N-89 or IFN-α, and then RL assays were performed at 2 to 72 hrs after the treatment. The relative value (%) calculated at each time point, when the luciferase activity of non-treated cells at 24 hrs was assigned as 100%, is shown. Data are expressed as the means±standard deviation of triplicate assays. […] To evaluate this possibility, we examined the effect of VE on N-89 at the EC90 level in the ORL8 assay.

HCV-RNA replication = system: HCV-RNA replication; parameters: method as in PMID 21620801, PMID 16875675; conditions: cited from earlier work
[2] = system: genome-length HCV-RNA (O strain of genotype 1b) replication in Li23-derived ORL11 cells; parameters: method as in PMID 21320556; conditions: 10 µM, ORL11 assay; cited from earlier work
[3] = system: genome-length HCV-RNA (O strain of genotype 1b) replication in HuH-7-derived OR6 cells; parameters: method as in PMID 21320556; conditions: 10 µM, OR6 assay; cited from earlier work
[4] = system: genome-length HCV-RNA (O strain of genotype 1b) replication in Li23-derived ORL8 cells; parameters: method as in PMID 21320556; conditions: 10 µM, ORL8 assay; cited from earlier work
[5] = system: genome-length HCV-RNA (O strain of genotype 1b) replication in Li23-derived ORL8 cells; assay: ORL8 RL assay; format: cell-based, hepatitis C virus; conditions: ORL8 cells
Procedure: RSc and D7 cells were derived from the cell lines HuH-7 and Li23, respectively, were cultured as described previously, [29]. HuH-7-derived OR6 [13], AH1R [30], and 1B-4R [Ikeda et al., submitted] cells harboring genome-length HCV-RNA and HuH-7-derived polyclonal sOR [31], and RSc-JRN/35B [Ikeda et al., submitted] cells harboring an HCV subgenomic replicon were cultured with medium in the presence of G418 (0.3 mg/ml; Geneticin, Invitrogen, Carlsbad, CA) as described previously. Li23-derived ORL8 [20], ORL11 [20], 1B-4RL [Ikeda et al., submitted], and KAH5RL [Ikeda et al., submitted] cells harboring genome-length HCV-RNA were maintained with medium in the presence of G418 (0.3 mg/ml) as described previously. Li23-derived polyclonal sORL8 and sORL11 cells harboring an HCV replicon, which were established by the transfection of ORN/3-5B/QR,KE,SR RNA into the cured OL8 and OL11 cells, respectively, were also cultured with medium in the presence of G418 (0.3 mg/ml) as described previously. […] Therefore, when HCV-RNA is excluded from the cells or when its level is decreased, the cells are killed in the presence of G418.
RL assay was performed as described previously, [24]. Briefly, the cells were plated onto 24-well plates (2×10^4 cells per well) in triplicate and then treated with each reagent at several concentrations for 72 hrs. After treatment, the cells were subjected to luciferase assay using the RL assay system (Promega, Madison, WI). The experiments were performed at least in triplicate. From the assay results, the 50% effective concentration (EC50) of each reagent was determined.
The SI value of each reagent was determined by dividing the CC50 value by the EC50 value.

[6] = system: HCV-RNA replication in ORL8 cells; assay: Comparative time course RL assay in ORL8 cells; format: cell-based, hepatitis C virus; conditions: 1 IU/ml
Procedure: We next performed a time course assay (2 to 72 hrs after treatment) in the case of ORL8 cells treated with N-89 (0.1 µM or 1 µM) or IFN-α (1 IU/ml; corresponding to approximately EC80). ORL8 cells treated with IFN-α (1 IU/ml) and N-89 (1 µM) had almost the same anti-HCV kinetics over the first […] after treatment (upper panel of Fig. 4); however, within the first 12 hrs after treatment N-89-treated ORL8 cells had more rapid anti-HCV kinetics than did the IFN-α-treated cells (lower panel of Fig. 4).
as §1, with “Figure 4 The anti-HCV action of N-89 was faster than that of IFN-α. The ORL8” for “The ORL8”, “ORL8 assay. […] Similar results were obtained by using N-251 (Fig. 5C and D). […] However, an antimalarial drug, artemisinin, was hardly influenced by co-treatment with VE (Fig. 5E). The value (1.9) of artemisinin was almost the same as that (3.5 or 2.5) of IFN-α or the control, respectively (Fig. 5F).” for “ORL8 assay.”

[7] = reagent at expected EC90, Fig. 5F (control 2.5)

| Compound | VE 10μM(+) / VE 10μM(-) ratio of RL activity [1, 7] | anti-HCV activity (HCV-RNA replication) | inhibition of HCV-RNA replication [2] | inhibition of HCV-RNA replication [3] | inhibition of HCV-RNA replication [4] | EC80 [5] | VE 10μM(+) / VE 10μM(-) ratio of RL activity ([1]; reagent at expected EC90, Fig. 5B (control 3.0)) | VE 10μM(+) / VE 10μM(-) ratio of RL activity ([1]; reagent at expected EC90, Fig. 5D (control 2.3)) | time after treatment at which a decrease of RL activity began to be seen [6] |
| --- | --- | --- | --- | --- | --- | --- | --- | --- | --- |
| C[C@@H]1CC[C@H]2[C@@H](C)C(=O)O[C@@H]3O[C@@]4(C)CC[C@@H]1[C@]32OO4 [Artemisinin, reference compound] | 1.9 | weak anti-HCV activity |  |  |  |  |  |  |  |
| NC(=O)c1ncn([C@@H]2O[C@H](CO)[C@@H](O)[C@H]2O)n1 [RBV, ribavirin] |  |  | efficiently inhibited HCV-RNA replication | not in the OR6 assay | efficiently inhibited HCV-RNA replication |  |  |  |  |
| IFN-α | 3.5 |  |  |  |  | ~1 IU/ml | 3.2 | 4.3 | 12 h |

— PMC3758303 (PLoS ONE, 2013)
